The source of these data is patent publication US4734411A, “Pyrrolizidine compounds, salts thereof, process for the preparation of same and pharmaceutical agents comprising same” (Sanwa Kagaku Kenkyusho Co., Ltd., priority 1985, dated 1988).

Where two headings read alike, the source gives them in different places.

In data set [1] the test system is stress induced gastric ulcer. The experiment in a line: Stress ulcer in rats (restraint and water immersion). Format: in vivo, Wistar rats, male. Conditions: for Inhibition (%): an hour before the restraint; for ED50: Rattus norvegicus. The method, then:
Some pyrrolizidine compounds according to the invention were tested to evaluate their anti-ulcer activity in comparison with Pirenzepine and Cimetidine as controls, in accordance with the procedure proposed by Takagi et al.["Japan. J. Pharmacol." Vol. 18, page 9 (1968)].
Wistar rats of male sex were used, each having the body weight of 138 to 207 g. The animals were deprived of food for 24 hours prior to the test. They were immobilized in a restraint cage and immersed for 7 hours to the height of the xiphoid in a water bath kept at 23±1° C. After inflation with 10 ml of 1% formalin, the isolated stomach was opened along the greater curvature. The ulcer index was determined as the sum of the length (mm) of each erosion per rat. The compounds were administered orally an hour before the restraint.

Data set [2] concerns aspirin induced gastric ulcer. In words: Aspirin ulcer in rats (pylorus ligated). Format: in vivo, Sprague-Dawley rats, male. Conditions: for Inhibition (%): an hour before pylorus ligation and aspirin (100 mg/kg); for ED50: Rattus norvegicus. Here is the method: Some pyrrolizidine compounds according to the invention were tested to evaluate their anti-ulcer activity on Aspirin ulcer, in comparison with Pirenzepine and Cimetidine as controls, in accordance with the procedure proposed by Okabe et al. ["Japan. J. Pharmacol." Vol. 24, page 363 (1974)].
Sprague-Dawley rats of male sex were used, each having the body weight of 146 to 210 g. The animals were deprived of food for 24 hours prior to the test. After an hour from oral administration of the compounds, the pylorus was ligated under anesthesia by ethyl ether and aspirin (100 mg/kg) suspended with 5% gum arabic was orally administered. After 7 hours from the administration, the stomach was isolated and inflated with 10 ml of 1% formalin. The ulcer index was determined as the sum of the length (mm) of each erosion per rat.
Results are shown in following Table 2 in terms of percent inhibition of anti-ulcer activity with respect to concentrations of 10 to 100 mg/kg.

For another data set, the system named is pupil diameter. In words: Influence on pupil diameter of mice (mydriatic effect). Format: in vivo, ICR mice, male. To be noted: oral, 30 minutes. Here is the method: (Influence on pupil diameter of mice)
Some pyrrolizidine compounds according to the invention were tested to evaluate their influence on the pupil diameter of mice, in comparison with Pirenzepine and Atropine as controls.
The animals were deprived of food for 18 hours prior to the test. After 30 minutes from oral administration of the compounds, the pupil width was measured by a micrometer. Results are shown in following Table 3 in terms of ratio of pupil diameter and mydriatic effect.

Another data set in a line: Acute toxicity in mice. To be noted: mouse, in vivo; oral, 7 days, 5 animals, Litchfield-Wilcoxon's method. Format: in vivo. Here is the method: (§1) Some pyrrolizidine compounds according to the invention were tested to evaluate their acute toxicity in mice.
(§2) ICR mice of male sex were used, each having the body weight of 24.8 to 30.0 g. The compounds were orally administered and general condition, behavior and mortality were observed daily throughout the experimental period of time (7 days). At end of the period, the surviving animals were sacrificed. Dead animals were sacrificed at the time when they were recognized to be dead. LD50 value was calculated in accordance with Litchfield-Wilcoxon's method.

Another data set relates to ICR mice. In words: Acute toxicity in mice. In kind it is in vivo. To be noted: oral, 7 days, of 5 animals; numeral in parenthesis. The method, then:
as §1, §2

The conditions of data set [3]: in words, related arts; cited from earlier work.
[4] abbreviates: oral, concentration of inhibitor which gives 50% inhibition, read-out: ED50.
The mark [5] stands for this setting: 30 mg/kg, Atropine (1 mg/kg) = 1.00.

With `c1ccc2c(c1)Sc1ccccc1N2CC12CCCN1CCC2` [Example 1, 10-(7a-Pyrrolizidinylmethyl)phenothiazine], the “Inhibition (%)” value in data set [1] (10 mg/kg, oral) was 55.4%; in data set [1] (100 mg/kg, oral), 92.5%; in data set [2] (10 mg/kg, oral), 58.3%; in data set [2] (100 mg/kg, oral), 63.5%. Besides, the ED50 in data set [1] (setting [4]) and in data set [2] (setting [4]) was less than 10 mg/kg in each case. In addition, the “Rate of pupil dia. (pre. = 1)” value with pupil diameter (30 mg/kg) is given as 2.7. In addition, the Ratio of mydriasis with pupil diameter (setting [5]) is listed as 0.57. Also, the LD50 at 168 h in the data set “Acute toxicity in mice” was more than 1000 mg/kg.
As for `c1ccc2c(c1)Sc1ccccc1N2CCC12CCCN1CCC2` [Example 2, 10-[2-(7a-Pyrrolizidinyl)ethyl)phenothiazine], the “Inhibition (%)” value in data set [1] (10 mg/kg, oral) was found to be 38.6%; in data set [1] (100 mg/kg, oral), 87.0%; in data set [2] (10 mg/kg, oral), 53.3%; in data set [2] (100 mg/kg, oral) it was 73.2%. Also, the ED50 in data set [1] (setting [4]) is 16.4 mg/kg; in data set [2] (setting [4]), less than 10 mg/kg. Moreover, the “Rate of pupil dia. (pre. = 1)” value in the data set on pupil diameter (30 mg/kg) turned out to be 4.6. The Ratio of mydriasis in the data set on pupil diameter (setting [5]) is listed as 0.98. In “Acute toxicity in mice”, this molecule displayed an LD50 at 168 h of less than 1000 mg/kg. In the data set on ICR mice, the “number of dead animals” value came out at 4.
As to `C[Si](C)(C)c1cccc2c1N(CC13CCCN1CCC3)c1ccccc1S2` [Example 4, 10-(7a-Pyrrolizidinylmethyl)-1-trimethylsilylphenothiazine], the “Inhibition (%)” value in data set [2] (10 mg/kg, oral) came to 17.7%; in data set [2] (100 mg/kg, oral) it was 65.6%. In data set [2] (po), the ED50 was 60.4 mg/kg. This molecule gave an LD50 at 168 h in the data set “Acute toxicity in mice” of more than 1000 mg/kg.
Turning to `CN/C(=N/CCSCc1nc[nH]c1C)NC#N` [Cimetidine, reference compound], the “Inhibition (%)” value in data set [1] (10 mg/kg, oral) stood at 16.9%; in data set [1] (100 mg/kg, oral), 81.5%; in data set [2] (10 mg/kg, oral), 12.2%; in data set [2] (100 mg/kg, oral), 69.6%. In addition, the ED50 in data set [1] (po) came out at 33.8 mg/kg; in data set [2] (po), 50.4 mg/kg. For the same molecule, the side effects entry in data set [3] was “side effects of forming a perforation in ulcer and strengthening a delayed hypersensitive reaction”.
As for `CN1[C@@H]2CC[C@H]1C[C@@H](OC(=O)C(CO)c1ccccc1)C2` (stereo partly drawn) [Atropine, reference compound], in the data set with pupil diameter (1 mg/kg), the “Rate of pupil dia. (pre. = 1)” value is given as 4.7 and the Ratio of mydriasis turned out to be 1.00.
Take `CN(C)S(=O)(=O)c1ccc2c(c1)N(CC13CCCN1CCC3)c1ccccc1S2` [Example 3, 2-(N,N-Dimethylsulfamoyl)-10-(7a-pyrrolizidinylmethyl)phenothiazine]: the “Inhibition (%)” value turned out to be 49.4% in data set [1] (10 mg/kg, oral); 65.6% in data set [1] (100 mg/kg, oral); 19.7% in data set [2] (10 mg/kg, oral); 36.5% in data set [2] (100 mg/kg, oral). Moreover, the values for the 50% effective dose (ED50) in data set [1] (setting [4]) and in data set [2] (setting [4]) were 11.8 mg/kg and more than 100 mg/kg, respectively. In addition, in the data set with pupil diameter (30 mg/kg), the “Rate of pupil dia. (pre. = 1)” value stood at 1.1. Further, the Ratio of mydriasis with pupil diameter (setting [5]) worked out at 0.23. This molecule yielded an LD50 at 168 h in “Acute toxicity in mice” of more than 1000 mg/kg.
As for `O=C1Nc2cccnc2N(C(=O)C23CCCN2CCC3)c2ccccc21` [Example 5, 5,11-Dihydro-11-(pyrrolizidine-7a-carbonyl)-6H-pyrido(2,3-b)(1,4)-benzodiazepin-6-one], the “Inhibition (%)” value in data set [1] (10 mg/kg, oral) was found to be 31.7%; in data set [1] (100 mg/kg, oral), 80.2%; in data set [2] (10 mg/kg, oral), 23.6%; in data set [2] (100 mg/kg, oral) it was 82.2%. The 50% effective dose (ED50) in data set [1] (setting [4]) turned out to be 23.6 mg/kg; in data set [2] (setting [4]), 27.9 mg/kg. The “Rate of pupil dia. (pre. = 1)” value in the data set on pupil diameter (30 mg/kg) turned out to be 0.9. In the data set with pupil diameter (setting [5]), the Ratio of mydriasis was found to be 0.19. This molecule gave a median lethal dose (LD50) at 168 h in the data set “Acute toxicity in mice” of more than 1000 mg/kg. Also, the “number of dead animals” value with ICR mice was determined as 1.
Take `CN1CCN(CC(=O)N2c3ccccc3C(=O)Nc3cccnc32)CC1` [Pirenzepine, reference compound]: the “Inhibition (%)” value in data set [1] (10 mg/kg, oral) amounted to 7.2%; in data set [1] (100 mg/kg, oral) it was 98.8%; in data set [2] (10 mg/kg, oral), 22.1%; in data set [2] (100 mg/kg, oral), 90.5%. In addition, the results for the ED50 in data set [1] (setting [4]) and in data set [2] (setting [4]) were 26.3 mg/kg and 23.7 mg/kg, respectively. Moreover, the “Rate of pupil dia. (pre. = 1)” value with pupil diameter (30 mg/kg) is 3.4. Further, the Ratio of mydriasis with pupil diameter (setting [5]) turned out to be 0.72. The side effects entry in data set [3] is “side reactions due to supression of muscarinic receptor, although those are somewhat weak”.
